System: type I collagen mRNA
Experiment: Promotion of collagen synthesis (type I collagen mRNA, RT-PCR)
Type: cell-based
Conditions: positive control vitamin C 100 μg/ml
Experimental: To evaluate the inhibitory activity against MMP-1 gene expression of Aloe vera shoot concentrate, the change of mRNA expression was measured. RNA was extracted by using Trizol (Invitrogen, USA) according to the guanidium thiocyanate-phenol-chloroform extraction method, and then RT-PCR was carried out by using an All-in-one RT-PCR kit (SuperBio, Korea). PCR (reverse transcription at 50° C. for 30 minutes, inactivation of reverse transcriptase at 96° C. for 3 minutes, 25 cycles of 94° C. for 1 minute, 48° C. for 1 minute and 72° C. for 1 minute) was carried out by using an MMP-1 primer of Table 9, and actin was used as a control group. To evaluate the activity for the promotion of collagen synthesis of Aloe vera shoot concentrate, the expression of collagen mRNA was measured. RT-PCR was carried out with the same method as Experimental Example 9 except that the condition was 30 cycles of 94° C. for 1 minute, 62° C. for 1 minute and 72 ° C. for 1 minute, and collagen primer of Table 11 was used.

For `O=C1O[C@H]([C@@H](O)CO)C(O)=C1O` [vitamin C], which “Type I collagen expression amount (%)” value (column 100 μg/ml) is on record?
The value was 131.1%.

What about the “Type I collagen expression amount (%)” value (column 200 μg/ml) of the same compound?
The value was 156.3%.
